Data on 1 sequence can be found in patent publication US6737407B1, “Treatment of obesity” (Metabolic Pharmaceuticals, Ltd., priority 1997, dated 2004).

Where no end group is shown, it is not given here.

The test system of experiment [1] is C57BL/6J (ob/ob) mice. The experiment in a line: Plasma triglyceride and total cholesterol in obese mice after 18-day chronic treatment. The experiment is classed as in vivo, mouse. The note with it: for Plasma total cholesterol / Plasma triglyceride: after 18-day treatment. On the procedure: The animals were anaesthetised with sodium pentobarbitone (80 mg/kg body weight) 12 hr after the last dose of hGH 177-191. Blood samples were collected from the tail vein of anaesthetised animals 45 mins after the administration of anaesthetic. After being centrifuged at 2000×g for 5 minutes, plasma was removed from the samples and used for metabolite assays. Triglyceride and total cholesterol in plasma were measured by enzyme-spectrophotometric methods. The reagents are based on either a modified glycerol phosphate oxidase (GPO)-Trinder's type colour reaction^24 or a cholesterol oxidase-4-aminoantipyrine method^25. All assays were performed with the CentrifiChem System 400 (Union Carbide) containing an automated pipetter, a centrifugal analyser and a recording spectrophotometer. Seronorm Lipid (Nycomed Pharma Co., Oslo, Norway) was used as the calibrator.

In experiment [2] the test system is Porcine adipose Tissue. The experiment in a line: Lipolytic activity in porcine adipose tissue. The experiment is classed as cell-based, pig. The note with it: 0.5 μM peptide. On the procedure: (§1) Adipose tissues were removed from animals and sliced into segments of approximately 200 mg each. Then the tissues were pre-incubated in 25 ml vials containing 2 ml of Krebs-Ringerbicarbonate (KRB) buffer, 4% defatted BSA and 5.5 mM glucose under an atmosphere of carbogen (95%O2/ 5%CO2) at 37° C. for 1 hour. Tissues were then transferred to another vials with fresh medium and the incubation was initiated by adding hGH 177-191 peptide or analogues into the vials. The mixtures were then incubated at 37° C. for 90 minutes. After incubation, the tissues wee removed and aliquots (200 μl) of samples withdrawn from the medium were assayed for the contents of glycerol or free fatty acid (FFA) either by the enzyme assay (glycerol kinase) or calorimetric (copper-dye) spectrometry. The NADH or color produced was then monitored by the absorption at 340 nm and 610 nm, respectively.
Since corresponding sequences of non-human mammals are effectively peptide variants of the human sequence, it is also therefore expected that those corresponding sequences will be effective in other mammals including humans.

For experiment [3], the system named is adipose tissues from male Zucker fatty (fa/fa) rats. The experiment in a line: In vitro glycerol release during lipolysis in isolated adipose tissue. It is filed as cell-based, rat. The note with it: adipose tissues isolated from obese animals. How it is done:
as §1

For experiment [4], the system named is Human Subcutaneous adipose Tissue. The experiment in a line: Lipolytic activity in human subcutaneous adipose tissue. The note with it: 0.5 μM peptide. It is filed as cell-based. How it is done: as §1
Tables 6 and 7 show the in vitro antilipogenic and lipolytic activity of hGH 177-191 and two representative analogues (Ref Nos. 9604 and 9605) on human adipose tissue.

Experiment [5] has as its system hormone-sensitive lipase. As to the kind of experiment: Hormone-sensitive lipase (HSL) assay in isolated adipocytes. The experiment is classed as cell-based, rat. On the procedure: The enzyme was expressed as U/mg protein, where the release of 1 nmole of oleic acid per hour was considered as 1 Unit of enzyme activity.
Hormone-sensitive lipase (HSL) activity of isolated adipocytes was used as a model to evaluate the lipolytic effect of hGH 177-191 peptide and analogues. In this assay [C^14]-triolein was used as a substrate by HSL. The amount of hydrolyzed [C^14]-oleic acid was determined and used as an index of HSL activity.
The adipocytes were prepared from the epididymal fat pads of male Zucker fatty (fa/fa) rats by collagenase digestion. Fat pads (5 g) were finely-cut into small (2-3 mm) pieces and placed in a siliconised glass vial containing 10 ml digestion medium. […] The isolated adipocytes were resuspended with 10 ml collagen-free buffer and the concentration of adipocytes was estimated by counting an aliquot of a pre-determined volume of cells on a microscope slide. […]
The HSL activity was measured at 37° C. for 1 hour in a final volume of 200 μl, containing 10 μmoles phosphate buffer (pH 7.0). […] The [C^14]-radioactivity was measured by a liquid scintillation counter. […] The HSL activity was expressed as U/mg protein, where the release of 1 nmole of oleic acid per hour was defined as 1 U of enzyme activity.

Consider “LRIVQCRSVEGSCGF (cysteine pairing not given here) [Ref No. 9401]”, for which the “plasma levels of triglyceride versus control (in words)” value in experiment [1] (both sexes, ob/ob mice) is on record as “did not influence”. For the same sequence, the “plasma levels of cholesterol versus control (in words)” value in experiment [1] (female ob/ob mice) is given as “only slightly lower”. Besides, the Plasma total cholesterol came out at 2.84 ± 0.29 mmol/L in experiment [1] (female ob/ob mice) and 3.52 ± 0.39 mmol/L in experiment [1] (male ob/ob mice, listed as hGH 177-191). For the same sequence, the Plasma triglyceride in experiment [1] (female ob/ob mice) amounted to 0.38 ± 0.11 mmol/L; in experiment [1] (male ob/ob mice) it was 0.58 ± 0.16 mmol/L. The Glycerol released in experiment [2] is listed as 1300 ± 160 nmol/mg tissue/hour; in experiment [4] it was 1000 ± 80 nmol/mg tissue/hour. Further, in experiment [3], the “release of glycerol (in words)” value is recorded as “enhanced”. The “effect on hormone-sensitive lipase (in words)” value in experiment [5] was “effective in stimulating”.
